Our source for the IC50 values is ChEMBL document CHEMBL5365452, “Discovery of (S)-N1-(thiazol-2-yl) pyrrolidine-1,2-dicarboxamide derivatives targeting PI3Ka/HDAC6 for the treatment of cancer” (Bioorg Med Chem Lett, 2023).

The target in one assay is T1, Histone deacetylase 11 (Homo sapiens, UniProt Q96DB2).
T1 sequence (Q96DB2 whole entry): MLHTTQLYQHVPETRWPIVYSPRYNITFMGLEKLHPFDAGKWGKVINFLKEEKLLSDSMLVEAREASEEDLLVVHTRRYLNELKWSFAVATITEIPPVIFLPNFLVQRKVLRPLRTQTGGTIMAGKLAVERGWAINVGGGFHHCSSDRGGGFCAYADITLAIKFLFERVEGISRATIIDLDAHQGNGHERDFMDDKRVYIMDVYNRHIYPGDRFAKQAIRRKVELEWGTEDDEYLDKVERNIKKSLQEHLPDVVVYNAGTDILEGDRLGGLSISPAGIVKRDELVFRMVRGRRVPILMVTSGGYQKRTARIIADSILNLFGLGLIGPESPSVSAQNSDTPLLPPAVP
Nature of the assay: Inhibition of HDAC11 (unknown origin).

The target of the next assay is Histone deacetylase 1 (Homo sapiens, UniProt Q13547). The assay is described as follows: Inhibition of HDAC1 (unknown origin).
Sequence of Histone deacetylase 1 (Q13547 whole entry, canonical isoform): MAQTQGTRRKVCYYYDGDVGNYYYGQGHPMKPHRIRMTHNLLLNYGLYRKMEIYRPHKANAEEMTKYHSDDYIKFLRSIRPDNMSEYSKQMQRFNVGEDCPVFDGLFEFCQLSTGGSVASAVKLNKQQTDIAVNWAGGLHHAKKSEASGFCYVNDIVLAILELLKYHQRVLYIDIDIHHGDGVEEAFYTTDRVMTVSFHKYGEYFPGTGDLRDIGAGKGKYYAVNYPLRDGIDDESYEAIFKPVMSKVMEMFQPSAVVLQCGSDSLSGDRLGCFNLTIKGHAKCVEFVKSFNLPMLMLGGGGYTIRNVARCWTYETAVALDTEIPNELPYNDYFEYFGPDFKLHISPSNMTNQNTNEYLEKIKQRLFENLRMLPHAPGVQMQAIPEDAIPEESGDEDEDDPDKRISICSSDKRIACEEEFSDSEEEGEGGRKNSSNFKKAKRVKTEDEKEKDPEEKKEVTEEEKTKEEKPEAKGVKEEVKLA
Assay [1] deals with Phosphatidylinositol 4,5-bisphosphate 3-kinase catalytic subunit gamma isoform (Homo sapiens, UniProt P48736). The assay is described as follows: Inhibition of PI3Kgamma (unknown origin).
Sequence of Phosphatidylinositol 4,5-bisphosphate 3-kinase catalytic subunit gamma isoform (P48736 whole entry, canonical isoform): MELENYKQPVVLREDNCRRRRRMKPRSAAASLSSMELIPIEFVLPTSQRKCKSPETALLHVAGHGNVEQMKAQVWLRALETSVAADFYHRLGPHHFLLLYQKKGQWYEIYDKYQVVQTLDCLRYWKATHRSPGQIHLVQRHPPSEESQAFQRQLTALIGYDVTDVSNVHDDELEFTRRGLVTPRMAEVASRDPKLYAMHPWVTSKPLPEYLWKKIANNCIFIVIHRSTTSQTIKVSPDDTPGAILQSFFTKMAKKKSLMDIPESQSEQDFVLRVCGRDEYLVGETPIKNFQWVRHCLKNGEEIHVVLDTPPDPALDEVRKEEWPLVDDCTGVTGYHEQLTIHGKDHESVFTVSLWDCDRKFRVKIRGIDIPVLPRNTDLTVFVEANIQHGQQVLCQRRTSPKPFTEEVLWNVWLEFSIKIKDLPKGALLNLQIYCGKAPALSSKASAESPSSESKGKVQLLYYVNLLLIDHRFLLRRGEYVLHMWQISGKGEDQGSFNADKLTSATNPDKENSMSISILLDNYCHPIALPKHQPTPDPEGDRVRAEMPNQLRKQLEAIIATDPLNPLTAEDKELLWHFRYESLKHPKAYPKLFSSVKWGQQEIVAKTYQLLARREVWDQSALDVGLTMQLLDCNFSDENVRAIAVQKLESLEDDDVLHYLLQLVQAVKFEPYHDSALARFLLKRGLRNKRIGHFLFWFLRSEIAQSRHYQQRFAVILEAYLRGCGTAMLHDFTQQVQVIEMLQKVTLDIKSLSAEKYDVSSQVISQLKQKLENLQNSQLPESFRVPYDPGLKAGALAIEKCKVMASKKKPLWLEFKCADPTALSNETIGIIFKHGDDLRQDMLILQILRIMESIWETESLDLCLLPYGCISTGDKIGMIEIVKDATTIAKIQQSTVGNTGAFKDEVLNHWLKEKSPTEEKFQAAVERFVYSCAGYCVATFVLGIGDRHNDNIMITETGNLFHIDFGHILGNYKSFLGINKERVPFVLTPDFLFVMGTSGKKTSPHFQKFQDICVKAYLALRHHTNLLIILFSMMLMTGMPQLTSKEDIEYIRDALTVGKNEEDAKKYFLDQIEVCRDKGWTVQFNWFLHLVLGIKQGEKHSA
In assay [2] the target is Phosphatidylinositol 4,5-bisphosphate 3-kinase catalytic subunit beta isoform (Homo sapiens, UniProt P42338). The assay is described as follows: Inhibition of PI3Kbeta (unknown origin).
Sequence of Phosphatidylinositol 4,5-bisphosphate 3-kinase catalytic subunit beta isoform (P42338 whole entry, canonical isoform): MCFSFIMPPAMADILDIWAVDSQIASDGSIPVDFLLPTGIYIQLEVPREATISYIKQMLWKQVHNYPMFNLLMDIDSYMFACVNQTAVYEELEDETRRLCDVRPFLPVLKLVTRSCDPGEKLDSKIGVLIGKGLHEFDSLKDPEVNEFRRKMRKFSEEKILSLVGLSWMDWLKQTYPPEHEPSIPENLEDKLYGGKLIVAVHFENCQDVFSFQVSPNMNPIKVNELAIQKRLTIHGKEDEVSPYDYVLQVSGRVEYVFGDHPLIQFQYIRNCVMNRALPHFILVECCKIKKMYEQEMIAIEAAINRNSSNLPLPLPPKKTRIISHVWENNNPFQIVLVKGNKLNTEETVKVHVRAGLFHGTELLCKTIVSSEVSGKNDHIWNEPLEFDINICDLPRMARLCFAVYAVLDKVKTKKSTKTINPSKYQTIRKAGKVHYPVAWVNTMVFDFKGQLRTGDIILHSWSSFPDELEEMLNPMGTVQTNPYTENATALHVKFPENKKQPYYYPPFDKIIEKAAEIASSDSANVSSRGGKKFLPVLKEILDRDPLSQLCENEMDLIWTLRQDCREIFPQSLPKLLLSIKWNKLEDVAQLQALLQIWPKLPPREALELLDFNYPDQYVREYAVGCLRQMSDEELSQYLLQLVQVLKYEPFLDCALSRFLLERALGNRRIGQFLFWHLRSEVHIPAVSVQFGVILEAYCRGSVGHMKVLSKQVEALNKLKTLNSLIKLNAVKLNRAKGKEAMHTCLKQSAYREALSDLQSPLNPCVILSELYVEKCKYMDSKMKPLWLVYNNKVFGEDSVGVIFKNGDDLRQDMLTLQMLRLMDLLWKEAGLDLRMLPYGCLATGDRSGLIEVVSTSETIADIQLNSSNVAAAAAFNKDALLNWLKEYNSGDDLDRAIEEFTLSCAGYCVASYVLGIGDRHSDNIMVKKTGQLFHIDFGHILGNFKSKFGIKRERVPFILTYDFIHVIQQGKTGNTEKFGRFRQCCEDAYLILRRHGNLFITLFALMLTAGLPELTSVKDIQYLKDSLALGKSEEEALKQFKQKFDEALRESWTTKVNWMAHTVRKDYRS
The target in assay [3] is T2, Phosphatidylinositol 4,5-bisphosphate 3-kinase catalytic subunit delta isoform (Homo sapiens, UniProt O00329).
T2 sequence (O00329 whole entry): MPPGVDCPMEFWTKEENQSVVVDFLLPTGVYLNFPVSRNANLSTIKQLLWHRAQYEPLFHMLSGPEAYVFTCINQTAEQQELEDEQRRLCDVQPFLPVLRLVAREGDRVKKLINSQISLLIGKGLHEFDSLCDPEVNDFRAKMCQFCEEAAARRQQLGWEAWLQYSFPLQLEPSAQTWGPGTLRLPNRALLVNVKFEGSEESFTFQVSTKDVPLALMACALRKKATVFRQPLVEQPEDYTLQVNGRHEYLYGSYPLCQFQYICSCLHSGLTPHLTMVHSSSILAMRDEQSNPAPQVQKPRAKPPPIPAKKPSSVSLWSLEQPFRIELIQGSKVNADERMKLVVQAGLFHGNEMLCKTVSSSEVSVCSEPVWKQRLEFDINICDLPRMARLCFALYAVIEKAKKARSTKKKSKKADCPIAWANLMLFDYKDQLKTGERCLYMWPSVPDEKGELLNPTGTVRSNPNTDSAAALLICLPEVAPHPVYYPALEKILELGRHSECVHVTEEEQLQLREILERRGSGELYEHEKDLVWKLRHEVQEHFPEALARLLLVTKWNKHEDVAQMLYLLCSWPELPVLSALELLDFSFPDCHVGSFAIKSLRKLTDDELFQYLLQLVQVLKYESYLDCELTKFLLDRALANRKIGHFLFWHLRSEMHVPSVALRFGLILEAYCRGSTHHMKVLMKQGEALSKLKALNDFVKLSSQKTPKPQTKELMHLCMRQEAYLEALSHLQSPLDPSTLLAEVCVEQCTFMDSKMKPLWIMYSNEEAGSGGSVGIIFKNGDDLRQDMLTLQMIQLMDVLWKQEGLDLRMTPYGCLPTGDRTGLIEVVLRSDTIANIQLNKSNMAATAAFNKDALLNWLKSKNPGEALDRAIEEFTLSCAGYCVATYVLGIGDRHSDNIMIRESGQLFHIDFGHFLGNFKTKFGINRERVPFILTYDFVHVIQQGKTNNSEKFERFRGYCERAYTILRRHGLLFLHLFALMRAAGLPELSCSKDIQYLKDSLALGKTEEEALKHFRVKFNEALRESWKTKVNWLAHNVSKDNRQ
The assay is described as follows: Inhibition of PI3Kdelta (unknown origin).

For the next assay, the target named is T3, Histone deacetylase 8 (Homo sapiens, UniProt Q9BY41).
T3 sequence (Q9BY41 whole entry): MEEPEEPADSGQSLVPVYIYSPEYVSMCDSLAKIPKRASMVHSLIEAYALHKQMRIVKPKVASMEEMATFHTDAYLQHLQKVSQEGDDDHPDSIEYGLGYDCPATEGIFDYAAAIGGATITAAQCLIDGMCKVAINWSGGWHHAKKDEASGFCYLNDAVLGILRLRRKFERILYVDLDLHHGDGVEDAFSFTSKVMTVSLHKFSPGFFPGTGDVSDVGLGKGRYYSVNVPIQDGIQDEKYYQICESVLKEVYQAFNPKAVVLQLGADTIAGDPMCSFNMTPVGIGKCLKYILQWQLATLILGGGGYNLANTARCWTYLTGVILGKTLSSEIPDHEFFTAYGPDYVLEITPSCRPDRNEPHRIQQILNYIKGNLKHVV
Nature of the assay: Inhibition of HDAC8 (unknown origin).

The test system of the next assay is L-363. The assay is described as follows: Antiproliferative activity against human L-363 cells.
A further assay relates to MCF7. The assay is described as follows: Antiproliferative activity against human MCF7 cells.
In the next assay the test system is T47D. The assay is described as follows: Antiproliferative activity against human T47D cells.

As a reminder, the pIC50 is −log10 of the IC50, conventionally taken in molar units. Read a low pIC50 as a large IC50.

pIC50: −log10 of the molar value.

For the molecule `Cc1nc(NC(=O)N2C[C@H](NS(=O)(=O)Cc3ccc(C(=O)NO)cc3)C[C@H]2C(N)=O)sc1-c1ccnc(C(C)(C)C(F)(F)F)c1`, the pIC50 at Histone deacetylase 11 is 6.23; on Histone deacetylase 1 it was < 5.70; in assay [1], 6.55; in assay [2], 6.06; in [3], 7.38; at Histone deacetylase 8, < 5.70.
In the case of `Cc1nc(NC(=O)N2C[C@H](NC(=O)c3ccc(C(=O)NO)cn3)C[C@H]2C(N)=O)sc1-c1ccnc(C(C)(C)C(F)(F)F)c1`, the pIC50 is < 5.70 against Histone deacetylase 11; 6.33 against Histone deacetylase 1; 6.50 in assay [1]; < 6.00 in assay [2]; 6.67 in [3]; < 5.70 at Histone deacetylase 8.
Take `Cc1nc(NC(=O)N2CCC[C@H]2C(N)=O)sc1-c1ccnc(C(C)(C)C(F)(F)F)c1` [ALPELISIB]: the pIC50 in the assay with L-363 was 6.59; with MCF7 it was 6.60; in the assay on T47D, 5.64.
On to `O=C(CCCCCCC(=O)Nc1ccccc1)NO` [VORINOSTAT], for which, in the assay on MCF7, the pIC50 was 5.45.
